Experimental data from US6469146B1, “Radiopharmaceutical products suitable for the selective labeling of lymphocytes, and their preparation” (Cis Bio International, priority 2000, dated 2002).

Legend:
whole blood = test: Cell separation on whole blood (Polymorphprep gradient), activity in separated fractions; type: cell-based, human; design: tested at 2 mCi (74 MBq) in 3 mL blood; conditions: for Cell separation on whole blood (activity %): Polymorphprep: fraction: Polymorphprep gradient; for Cell separation on whole blood (activity %): Erythrocytes: fraction: erythrocytes; for Cell separation on whole blood (activity %): Leukocytes: fraction: leukocytes; for Cell separation on whole blood (activity %): Medium: fraction: medium
Method: (§1) The radiopharmaceuticals of table I (2 mCi; 74 MBq) are incubated in 3 mL of a fresh sample of human blood for 10 minutes under slow shaking. The blood composition depends upon each sample taken from healthy volunteers (average composition: 1.6±0.3.10^10 Red Globules (RG) and 2.2±0.3.10^7 White Globules (WG) with 1.2±0.3.10^7 Polymorphs (57±9%) and 0.7±0.3.10^7 Lymphocytes (35±4%)]. Non-bound radioactivity is removed by successive washings (2×10 mL of RPMI culture medium 1640) of 10 minutes at 600 g. The yield of cell labeling is determined in a CAPINTEC CRC 120 activimeter. Cell viability is controlled by the Trypan blue exclusion test.
(§2) The results obtained, namely the labeling yield (Yield) and the percentages of activity in the separated fractions are given in tables 3 to 5.
In a first experiment, a separation of the blood constituents is made on a double density Polymorphprep® gradient.
Whole blood from healthy volunteers is labeled with 2 mCi of [^99mTc(ArCS3)2(ArCS2)] following the method described above. The blood constituents are then separated by the Polymorphprep® double density gradient into two separate fractions: lymphocytes and polymorphs/erythrocytes. The whole blood, diluted in 2-3 mL RPMI, is initially delicately placed on the Polymorphprep® gradient and then centrifuged (300 g, 20 min, 37° C.). […] Counting is made on each fraction using a MAXM Y07 00 367 counter in order to confirm cell constitution.

human blood = test: Labeling of blood cells: yield of cell labeling in whole blood; type: cell-based; conditions: 2 mCi (74 MBq) in 3 mL fresh human blood, 10 minutes, after washings
Method: as §1, §2

| Compound | Cell separation on whole blood (activity %): Polymorphprep (whole blood) | Cell separation on whole blood (activity %): Erythrocytes (whole blood) | Cell separation on whole blood (activity %): Leukocytes (whole blood) | Cell separation on whole blood (activity %): Medium (whole blood) | Yield (±3%) of cell labeling (human blood) |
| --- | --- | --- | --- | --- | --- |
| Cc1ccc(C(=S)S[S][99Tc]([S]SC(=S)c2ccc(C)cc2)[S]C(=S)c2ccc(C)cc2)cc1 [Example 5, [^99mTc(4-MePhCS3)2(4-MePhCS2)]] | 3% | 17% | 80% | 0% | 98% |
| Cc1ccc(C(=S)S[S][99Tc]([S]SC(=S)c2ccc(C)cc2)[S]C(=S)c2ccc(C)cc2)cc1 [Example 6, [^99mTc(4-MePhCS3)2(4-MePhCS2)]] | 2% | 20% | 78% |  | 95% |
| CCc1ccc(C(=S)S[S][99Tc]([S]SC(=S)c2ccc(CC)cc2)[S]C(=S)c2ccc(CC)cc2)cc1 [Example 7, [^99mTc(4-EtPhCS3)2(4-EtPhCS2)]] | 3% | 12% | 83% | 2% | 93% |
| CCc1ccc(C(=S)S[S][99Tc]([S]SC(=S)c2ccc(CC)cc2)[S]C(=S)c2ccc(CC)cc2)cc1 [Example 8, [^99mTc(4-EtPhCS3)2(4-EtPhCS2)]] |  | 14% | 85% | 1% | 99% |
| CCc1ccccc1C(=S)S[S][99Tc]([S]SC(=S)c1ccccc1CC)[S]C(=S)c1ccccc1CC [Example 9, [^99mTc(2-EtPhCS3)2(2-EtPhCS2)]] | 2% | 24% | 72% | 2% | 72% |
| CCc1ccccc1C(=S)S[S][99Tc]([S]SC(=S)c1ccccc1CC)[S]C(=S)c1ccccc1CC [Example 10, [^99mTc(2-EtPhCS3)2(2-EtPhCS2)]] | 2% | 22% | 76% | 2% | 92% |
| CCCCc1ccc(C(=S)S[S][99Tc]([S]SC(=S)c2ccc(CCCC)cc2)[S]C(=S)c2ccc(CCCC)cc2)cc1 [Example 11, [^99mTc(4-nBuPhCS3)2(4-nBuPhCS2)]] | 1% | 53% | 46% |  | 97% |
| CCCCc1ccc(C(=S)S[S][99Tc]([S]SC(=S)c2ccc(CCCC)cc2)[S]C(=S)c2ccc(CCCC)cc2)cc1 [Example 12, [^99mTc(4-nBuPhCS3)2(4-nBuPhCS2)]] | 4% | 29% | 66% | 1% | 100% |
| CCOc1ccc(C(=S)S[S][99Tc]([S]SC(=S)c2ccc(OCC)cc2)[S]C(=S)c2ccc(OCC)cc2)cc1 [Example 13, [^99mTc(4-EtOPhCS3)2(4-EtOPhCS2)]] | 1% | 29% | 70% |  | 99% |
| CCOc1ccc(C(=S)S[S][99Tc]([S]SC(=S)c2ccc(OCC)cc2)[S]C(=S)c2ccc(OCC)cc2)cc1 [Example 14, [^99mTc(4-EtOPhCS3)2(4-EtOPhCS2)]] | 3% | 22% | 75% |  | 97% |
| COc1cccc(C(=S)S[S][99Tc]([S]SC(=S)c2cccc(OC)c2)[S]C(=S)c2cccc(OC)c2)c1 [Example 15, [^99mTc(3-MeOPhCS3)2(3-MeOPhCS2)]] | 2% | 25% | 73% |  | 99% |
| COc1cccc(C(=S)S[S][99Tc]([S]SC(=S)c2cccc(OC)c2)[S]C(=S)c2cccc(OC)c2)c1 [Example 16, [^99mTc(3-MeOPhCS3)2(3-MeOPhCS2)]] | 2% | 16% | 79% | 3% | 98% |
| Oc1ccc(C(=S)S[S][99Tc]([S]SC(=S)c2ccc(O)cc2)[S]C(=S)c2ccc(O)cc2)cc1 [Example 17, [^99mTc(4-OHPhCS3)2(4-OHPhCS2)]] | 1% | 12% | 85% | 2% | 93% |
| Oc1ccc(C(=S)S[S][99Tc]([S]SC(=S)c2ccc(O)cc2)[S]C(=S)c2ccc(O)cc2)cc1 [Example 18, [^99mTc(4-OHPhCS3)2(4-OHPhCS2)]] | 3% | 7% | 89% | 1% | 93% |
| Fc1ccc(C(=S)S[S][99Tc]([S]SC(=S)c2ccc(F)cc2)[S]C(=S)c2ccc(F)cc2)cc1 [Example 19, [^99mTc(4-FPhCS3)2 (4-FPhCS2)]] | 4% | 15% | 80% | 1% | 99% |
| Fc1ccc(C(=S)S[S][99Tc]([S]SC(=S)c2ccc(F)cc2)[S]C(=S)c2ccc(F)cc2)cc1 [Example 20, [^99mTc(4-FPhCS3)2 (4-FPhCS2)]] | 4% | 12% | 84% |  | 91% |
| Cc1cc(C)c(C(=S)S[S][99Tc]([S]SC(=S)c2cc(C)c(C)cc2C)[S]C(=S)c2cc(C)c(C)cc2C)cc1C [Example 21, [^99mTc(2,4,5-Me3PhCS3)2(2,4,5-Me3PhCS2)]] | 2% | 15% | 82% | 1% | 90% |
| Cc1cc(C)c(C(=S)S[S][99Tc]([S]SC(=S)c2cc(C)c(C)cc2C)[S]C(=S)c2cc(C)c(C)cc2C)cc1C [Example 22, [^99mTc(2,4,5-Me3PhCS3)2(2,4,5-Me3PhCS2)]] | 2% | 20% | 78% |  | 95% |
| S=C(S[S][99Tc]([S]SC(=S)c1cccc2ccccc12)[S]C(=S)c1cccc2ccccc12)c1cccc2ccccc12 [Example 23, [^99mTc(1-naphCS3)2(1-naphCS2)]] | 5% | 46% | 43% | 6% | 71% |
| S=C(S[S][99Tc]([S]SC(=S)c1cccc2ccccc12)[S]C(=S)c1cccc2ccccc12)c1cccc2ccccc12 [Example 24, [^99mTc(1-naphCS3)2(1-naphCS2)]] |  | 46% | 53% | 1% | 74% |
| S=C(Cc1ccccc1)S[S][99Tc]([S]SC(=S)Cc1ccccc1)[S]C(=S)Cc1ccccc1 [Example 27, [^99mTc(PhCH2CS3)2(PhCH2CS2)]] | 10% | 11% | 77% | 1% | 88% |
| S=C(CCc1ccccc1)S[S][99Tc]([S]SC(=S)CCc1ccccc1)[S]C(=S)CCc1ccccc1 [Example 28, [^99mTc(PhCH2CH2CS3)2(PhCH2CH2CS2)]] | 2% | 16% | 80% | 2% | 91% |
| S=C(CCc1ccccc1)S[S][99Tc]([S]SC(=S)CCc1ccccc1)[S]C(=S)CCc1ccccc1 [Example 29, [^99mTc(PhCH2CH2CS3)2(PhCH2CH2CS2)]] | 6% | 58% | 35% | 1% | 43% |
